Tested on: SKOV-3 cancer cell
Assay: Cellular uptake of protein/drug loaded nanocarriers
Assay type: cell-based
Excerpt: Cellular uptake of protein/drug delivered by zwitterionic nanocarriers. The internalization of protein/drug loaded zwitterionic nanocarrier was studied against SKOV-3 cancer cell. […] Folate targeting group modification facilitates FITC-BSA-loaded NP_CB internalization into cells compared to non-targeted NP_CB. […] The ability of NPs to deliver drug into cells was studied using DOX as model drug by taking advantage of its intricate fluorescence.

Question: How did the “cellular uptake of FITC-BSA” value (SKOV-3, FITC-BSA free or loaded, 1 h) turn out when “free FITC-BSA: FITC-labeled BSA, model protein” was run?
Answer: no fluorescence signal

Question: How did the “cellular uptake of DOX” value (SKOV-3, DOX free or loaded, 2 h) turn out when `COc1cccc2c1C(=O)c1c(O)c3c(c(O)c1C2=O)C[C@@](O)(C(=O)CO)C[C@@H]3O[C@H]1C[C@H](N)[C@H](O)[C@H](C)O1.Cl` [free DOX, Doxorubicin hydrochloride] was run?
Answer: Strong fluorescence and absolute presence of DOX in nucleus
